According to PMC6502086 (Molecular Biology and Evolution, 2019):

Target: T1, Or22a (Or22a^1; ab3A-1 neurons) (Drosophila melanogaster, UniProt P81909)
T1 sequence (P81909 1-397): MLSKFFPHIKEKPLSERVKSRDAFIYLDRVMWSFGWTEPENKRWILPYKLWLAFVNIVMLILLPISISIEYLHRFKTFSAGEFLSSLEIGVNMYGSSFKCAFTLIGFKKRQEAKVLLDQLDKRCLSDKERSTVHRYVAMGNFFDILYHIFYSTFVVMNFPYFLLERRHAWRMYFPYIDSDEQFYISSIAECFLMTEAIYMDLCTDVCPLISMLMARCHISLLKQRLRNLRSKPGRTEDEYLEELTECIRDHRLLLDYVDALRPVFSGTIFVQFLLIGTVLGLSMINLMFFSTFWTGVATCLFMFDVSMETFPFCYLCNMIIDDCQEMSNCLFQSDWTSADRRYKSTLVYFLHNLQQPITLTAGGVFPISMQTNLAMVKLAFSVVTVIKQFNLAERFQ
T1 sequence (Q9VNB5 1-486 partner): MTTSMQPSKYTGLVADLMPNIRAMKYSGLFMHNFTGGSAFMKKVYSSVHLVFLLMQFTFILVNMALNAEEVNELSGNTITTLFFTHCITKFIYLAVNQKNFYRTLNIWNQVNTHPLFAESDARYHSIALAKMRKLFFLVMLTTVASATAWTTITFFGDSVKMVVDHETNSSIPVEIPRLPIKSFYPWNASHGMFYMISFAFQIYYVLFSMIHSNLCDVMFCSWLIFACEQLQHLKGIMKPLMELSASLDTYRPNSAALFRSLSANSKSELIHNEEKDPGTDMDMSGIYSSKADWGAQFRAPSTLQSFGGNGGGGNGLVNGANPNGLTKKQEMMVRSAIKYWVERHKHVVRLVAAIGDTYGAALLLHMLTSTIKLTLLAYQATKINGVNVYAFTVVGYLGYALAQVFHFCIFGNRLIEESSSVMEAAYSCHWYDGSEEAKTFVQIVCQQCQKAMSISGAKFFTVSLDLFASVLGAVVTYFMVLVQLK
Test: single-sensillum recording, transgene in empty ab3A neuron

With `CCCCCC(=O)OC` [methyl hexanoate] the spikes/s (odorant at 10^−4 v/v in paraffin oil) was “flies expressing Or22ab have decreased responses to ethyl hexanoate, methyl hexanoate, and ethyl 2-methyl butanoate”.

In the case of `CCOC(=O)C(C)CC` (centres unmarked) [ethyl 2-methyl butanoate], the spikes/s (odorant at 10^−2 v/v in paraffin oil) is reported as “flies expressing Or22ab have decreased responses to ethyl hexanoate, methyl hexanoate, and ethyl 2-methyl butanoate”.
